This note sets out measurements from patent US5986108A, “4-substitued-3-[1 or 2 amino acid residue]-azetidin-2-one derivatives useful as cysteine proteinase inhibitor” (Synphar Laboratories, Inc., priority 1997, dated 1999).

Holding throughout (assay type): biochemical
In assay [1] the target is Cathepsin B (Rattus norvegicus, UniProt P00787). Put plainly: In vitro assay of inhibition of Cathepsin B (N-CBZ-Phe-Arg-AMC substrate). The note with it: r rat CathB, pH5.1, 10 min preincubation at room temperature; read-out: IC50, Cathepsin B. The protocol: After 10 min of incubation at room temperature a 20 μl of 5 mM substrate (N-CBZ-Phe-Arg-AMC, dissolved in DMSO) was added to initiate reaction. Reading is followed up for 10 min at the Fluoroscan reader (excitation at 380 nm, emission at 460 nm).

For assay [2], the target named is T1, papain (Carica papaya, UniProt P00784).
T1 sequence (P00784 134-345): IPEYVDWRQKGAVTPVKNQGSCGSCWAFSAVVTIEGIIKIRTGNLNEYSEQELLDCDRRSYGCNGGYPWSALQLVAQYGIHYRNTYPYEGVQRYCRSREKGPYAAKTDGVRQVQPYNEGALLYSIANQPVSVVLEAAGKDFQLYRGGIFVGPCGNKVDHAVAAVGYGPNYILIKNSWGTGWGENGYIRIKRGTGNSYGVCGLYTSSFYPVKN
Put plainly: Assay of inhibition of papain (N-CBZ-Pro-Phe-Arg-pNA substrate). The protocol: To a 170 μl of enzyme-buffer mixture (enzyme:papain, diluted to give 30 mOD/min, buffer: 0.2M potassium phosphate, 1.0 mM EDTA, 5 mML Cysteine, pH6.5) a 10 μl of inhibitor (dissolved in DMSO) was added. After 10 min of incubation at room temperature, 20 μl of 10 mM substrate (N-CBZ-Pro-Phe-Arg-pNA, dissolved in DMSO) was added to initiate reaction. Reading is followed up for 3 min at the Thermomax plate reader(absorbance at 405 nm).
A plot of percentage of inhibition vs inhibitor concentration is obtained, and IC50 is determined using a linear regression calculations (concentration of inhibitor which will give 50% inhibition).

Assay [3] has as its target Cathepsin L (Rattus norvegicus, UniProt P07154). Nature of the assay: Assay of inhibition of Cathepsin L (N-CBZ-Phe-Arg-AMC substrate). The settings on record: r rat CathL, pH5.0, 10 min preincubation at room temperature; read-out: IC50, Cathepsin L. The protocol:
After 10 min of incubation at room temperature a 20 μl of 1 mM substrate (N-CBZ-Phe-Arg-AMC, dissolved in DMSO) was added to initiate reaction. Reading is followed up for 10 min at the Fluoroscan reader (excitation at 380 nm, emission at 460 nm).

Chain of Cathepsin B (P00787 80-339): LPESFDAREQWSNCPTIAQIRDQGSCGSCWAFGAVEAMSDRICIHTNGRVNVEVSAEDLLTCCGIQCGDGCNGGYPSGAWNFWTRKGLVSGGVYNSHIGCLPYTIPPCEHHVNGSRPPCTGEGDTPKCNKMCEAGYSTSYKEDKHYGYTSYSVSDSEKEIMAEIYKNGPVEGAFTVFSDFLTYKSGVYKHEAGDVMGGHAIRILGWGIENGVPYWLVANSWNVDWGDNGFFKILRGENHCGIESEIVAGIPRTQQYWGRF
Chain of Cathepsin L (P07154 114-334): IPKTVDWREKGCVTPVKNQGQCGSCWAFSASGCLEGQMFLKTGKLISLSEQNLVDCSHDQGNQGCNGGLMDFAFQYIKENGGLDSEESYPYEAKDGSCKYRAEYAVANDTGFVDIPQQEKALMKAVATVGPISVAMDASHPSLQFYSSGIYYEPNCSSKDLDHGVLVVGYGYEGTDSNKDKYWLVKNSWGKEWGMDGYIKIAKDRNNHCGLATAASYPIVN

Usually IC50 stands for the point on the concentration scale where inhibition reaches its midpoint. In the case of `CON1C[C@H](NC(=O)[C@H](Cc2ccccc2)NC(=O)OCc2ccccc2)C1=O` [Example 1, (3S)-3-(N-benzyloxycarbonyl-L-phenylalanyl)-amino-1-methoxy-azetidin-2-one], the half-maximal inhibitory concentration (IC50) in assay [1] and in assay [2] was above 63000 nM in each case.
Regarding `O=C(N[C@@H](Cc1ccccc1)C(=O)N[C@H]1CNC1=O)OCc1ccccc1` [Example 2, (3S)-3-(N-benzyloxycarbonyl-L-phenylalanyl)-amino-azetidin-2-one], the results for the IC50 in assay [1] and in assay [2] were 4810 nM and 15800 nM, respectively.
In the same order, the values of `CON1C[C@@H](NC(=O)[C@H](Cc2ccccc2)NC(=O)OCc2ccccc2)C1=O` [Example 3, (3R)-3-(N-benzyloxycarbonyl-L-phenylalanyl)-amino-1-methoxy-azetidin-2-one] are 52000 nM and above 63000 nM.
For `O=C(N[C@@H](Cc1ccccc1)C(=O)N[C@@H]1CNC1=O)OCc1ccccc1` [Example 4, (3R)-3-(N-benzyloxycarbonyl-L-phenylalanyl)-amino-azetidin-2-one], the midpoint of inhibition in assay [2], the IC50, lay at 57000 nM.
Same read-out and setting: as for `CC(=O)O[C@@H]1NC(=O)[C@H]1NC(=O)[C@H](Cc1ccccc1)NC(=O)OCc1ccccc1` [Example 7, (3S,4S)-3-(N-benzyloxycarbonyl-L-phenylalanyl)-amino-4-acetoxy-azetidin-2-one], the figure is 275 nM.
On to `O=C(CCc1ccccc1)N[C@@H](Cc1ccccc1)C(=O)N[C@@H]1C(=O)N[C@H]1Oc1ccc(C(=O)O)cc1` [Example 27B, (3S,4S)-3-{N-(3-phenylpropionoyl)-L-phenylalanyl}-amino-4-(4-carboxyphenoxy)-azetidin-2-one], for which the IC50 in assay [1] came out at 21800 nM; in assay [3], 38 nM.
Take `O=C(CCc1ccccc1)N[C@@H](Cc1ccccc1)C(=O)N[C@@H]1C(=O)N[C@H]1Oc1cccc(C(=O)O)c1` [Example 28, (3S,4S)-3-{N-(3-phenylpropionoyl)-L-phenylalanyl}-amino-4-(3-carboxyphenoxy)-azetidin-2-one]: the IC50 in assay [1] stood at 76 nM; in assay [3], 228 nM.
For `O=C(CCc1ccccc1)N[C@@H](Cc1ccccc1)C(=O)N[C@@H]1C(=O)N[C@H]1Oc1ccc(C[C@H](NC(=O)OCc2ccccc2)C(=O)OC(c2ccccc2)c2ccccc2)cc1` [Example 29A, (3S,4S)-3-{N-(3-phenylpropionoyl)-L-phenylalanyl}-amino-4-{4-(L-2-N-benzyloxycarbonylamino-2-diphenylmethoxycarbonyl-ethyl)-phenoxy}-azetidin-2-one] the same measures were 590 nM and 160 nM.
In the same order, the values of `N[C@@H](Cc1ccccc1)C(=O)N[C@@H]1C(=O)N[C@H]1Oc1ccc(C(=O)O)cc1` [Example 30B, (3S,4S)-3-(L-phenylalanyl)-amino-4-(4-carboxyphenoxy)-azetidin-2-one] are above 68000 nM and 5260 nM.
On to `O=C(N[C@@H](Cc1ccccc1)C(=O)N[C@@H]1C(=O)N(S(=O)(=O)O)[C@H]1Sc1ccccc1)OCc1ccccc1` [Example 31, (3R,4S)-3-(N-benzyloxycarbonyl-L-phenylalanyl)-amino-4-phenylthio-azetidin-2-one-1-sulfonic acid], for which the IC50 was found to be 8430 nM in assay [1] and 67 nM in assay [3].
Regarding `CC(=O)O[C@H]1[C@H](NC(=O)[C@H](Cc2ccccc2)NC(=O)OCc2ccccc2)C(=O)N1S(=O)(=O)O` [Example 32, (3S,4S)-3-(N-benzyloxycarbonyl-L-phenylalanyl)-amino-4-acetoxy-azetidin-2-one-1-sulfonic acid], the IC50 is 368 nM in assay [1] and 26 nM in assay [3].
As for `O=C(N[C@@H](Cc1ccccc1)C(=O)N[C@@H]1C(=O)N[C@H]1Sc1ccncc1)OCc1ccccc1` [Example 34, (3S,4S)-3-(N-benzyloxycarbonyl-L-phenylalanyl)-amino-4-(pyrid-4-yl) thio-azetidin-2-one], the IC50 in assay [1] was found to be 330 nM; in assay [3], 16.8 nM.
